Measurements taken from the NIST ThermoML archive (doi:10.1016/j.jct.2013.09.008).

Legend:
[1] = mn = molality of the nth substance listed, in mol/kg; settings: 101.33 kPa, Liquid, m2 = 0; for speed of sound: Frequency=3 MHz, Linear variable-path acoustic interferometer; for viscosity: Capillary tube (Ostwald / Ubbelohde) method
[2] = wn = mass fraction of the nth substance listed; settings: 101.33 kPa, Liquid; for speed of sound: Frequency=3 MHz, Linear variable-path acoustic interferometer; for mass density: Pycnometric method; for viscosity: Capillary tube (Ostwald / Ubbelohde) method
[3] = 101.33 kPa, Liquid; for speed of sound: Frequency=3 MHz, Linear variable-path acoustic interferometer; for viscosity: Capillary tube (Ostwald / Ubbelohde) method

O [water] + N[C@@H](Cc1ccccc1)C(=O)O
[1]
Settings	speed of sound [m/s]	viscosity [mPa·s]
293.15 K	1483.6	–
298.15 K	–	0.8903
303.15 K	1508.4	0.7973
308.15 K	–	0.719
313.15 K	1526.8	0.6526
318.15 K	1533	0.5972

Settings	mass density [kg/m3]
[1], 308.15 K, Pycnometric method	994.07

O=C[C@H](O)[C@@H](O)[C@@H](O)CO [L-arabinose] + O
[2]
Settings	mass density, w1 = 0.025 [kg/m3]	mass density, w1 = 0.05 [kg/m3]	speed of sound, w1 = 0.025 [m/s]	speed of sound, w1 = 0.05 [m/s]	viscosity, w1 = 0.025 [mPa·s]	viscosity, w1 = 0.05 [mPa·s]
293.15 K	1007.35	1016.09	1491.4	1502.3	–	–
298.15 K	1005.77	1014.44	1506.7	1516.9	0.9141	0.9695
303.15 K	1004.18	1012.79	1517	1526.8	0.8116	0.8573
308.15 K	1002.6	1011.13	1528.6	1537.9	0.7304	0.7658
313.15 K	1001.01	1009.46	1536.8	1545.7	0.6591	0.689
318.15 K	999.43	1007.8	1543.1	1551.8	0.6006	0.6295

O [water]
[3]
Settings	speed of sound [m/s]	viscosity [mPa·s]
293.15 K	1483.6	–
298.15 K	–	0.8903
303.15 K	1508.4	0.7973
308.15 K	–	0.719
313.15 K	1526.8	0.6526
318.15 K	1533	0.5972

O=C[C@H](O)[C@@H](O)[C@H](O)[C@H](O)CO [D-glucose] + O
[2]
Settings	mass density, w1 = 0.025 [kg/m3]	mass density, w1 = 0.05 [kg/m3]	speed of sound, w1 = 0.025 [m/s]	speed of sound, w1 = 0.05 [m/s]	viscosity, w1 = 0.025 [mPa·s]	viscosity, w1 = 0.05 [mPa·s]
293.15 K	–	1016.28	1492.9	–	–	–
298.15 K	1005.91	1014.69	–	1514.3	0.9202	0.9767
303.15 K	1004.61	1013.08	1517.4	1525.1	0.8167	0.8605
308.15 K	1003.21	1011.47	–	1535.7	0.7324	0.7697
313.15 K	1001.61	1009.85	1536.9	1545.6	0.661	0.6945
318.15 K	999.76	–	–	1554.5	0.6035	0.6334

OC[C@H]1O[C@@](CO)(O[C@H]2O[C@H](CO)[C@@H](O)[C@H](O)[C@H]2O)[C@@H](O)[C@@H]1O [D-sucrose] + O
[2]
Settings	mass density, w1 = 0.025 [kg/m3]	mass density, w1 = 0.05 [kg/m3]	speed of sound, w1 = 0.025 [m/s]	speed of sound, w1 = 0.05 [m/s]	viscosity, w1 = 0.025 [mPa·s]	viscosity, w1 = 0.05 [mPa·s]
293.15 K	1009.22	1018.91	1497.2	1501.4	–	–
298.15 K	1007.51	1017.19	1511.2	1516.5	0.9618	1.011
303.15 K	1005.76	1015.45	1521.5	1526.6	0.8761	0.9129
308.15 K	1004.05	1013.72	1532.1	1537.7	0.7969	0.8285
313.15 K	1002.31	1011.98	1542.5	1547.7	0.7057	0.7457
318.15 K	1000.56	1010.23	1552	1557.2	0.6624	0.6946
